Structures can show the parent of a compound that is named as a salt.
What was measured:
[1] = target: ATP-binding cassette sub-family C member 3 (Homo sapiens, UniProt O15438); assay: Inhibition of human MRP3 overexpressed in Sf9 insect cell membrane vesicles assessed as uptake of [3H]-estradiol-17beta-D-glucuronide in presence of ATP and GSH measured after 10 mins by membrane vesicle transport assay; assay type: ADME, cell-based
[2] = target: T1, ATP-binding cassette sub-family C member 4 (Homo sapiens, UniProt O15439); assay: Inhibition of human MRP4 overexpressed in Sf9 cell membrane vesicles assessed as uptake of [3H]-estradiol-17beta-D-glucuronide in presence of ATP and GSH measured after 20 mins by membrane vesicle transport assay; assay type: ADME, cell-based
T1 sequence (O15439 whole entry): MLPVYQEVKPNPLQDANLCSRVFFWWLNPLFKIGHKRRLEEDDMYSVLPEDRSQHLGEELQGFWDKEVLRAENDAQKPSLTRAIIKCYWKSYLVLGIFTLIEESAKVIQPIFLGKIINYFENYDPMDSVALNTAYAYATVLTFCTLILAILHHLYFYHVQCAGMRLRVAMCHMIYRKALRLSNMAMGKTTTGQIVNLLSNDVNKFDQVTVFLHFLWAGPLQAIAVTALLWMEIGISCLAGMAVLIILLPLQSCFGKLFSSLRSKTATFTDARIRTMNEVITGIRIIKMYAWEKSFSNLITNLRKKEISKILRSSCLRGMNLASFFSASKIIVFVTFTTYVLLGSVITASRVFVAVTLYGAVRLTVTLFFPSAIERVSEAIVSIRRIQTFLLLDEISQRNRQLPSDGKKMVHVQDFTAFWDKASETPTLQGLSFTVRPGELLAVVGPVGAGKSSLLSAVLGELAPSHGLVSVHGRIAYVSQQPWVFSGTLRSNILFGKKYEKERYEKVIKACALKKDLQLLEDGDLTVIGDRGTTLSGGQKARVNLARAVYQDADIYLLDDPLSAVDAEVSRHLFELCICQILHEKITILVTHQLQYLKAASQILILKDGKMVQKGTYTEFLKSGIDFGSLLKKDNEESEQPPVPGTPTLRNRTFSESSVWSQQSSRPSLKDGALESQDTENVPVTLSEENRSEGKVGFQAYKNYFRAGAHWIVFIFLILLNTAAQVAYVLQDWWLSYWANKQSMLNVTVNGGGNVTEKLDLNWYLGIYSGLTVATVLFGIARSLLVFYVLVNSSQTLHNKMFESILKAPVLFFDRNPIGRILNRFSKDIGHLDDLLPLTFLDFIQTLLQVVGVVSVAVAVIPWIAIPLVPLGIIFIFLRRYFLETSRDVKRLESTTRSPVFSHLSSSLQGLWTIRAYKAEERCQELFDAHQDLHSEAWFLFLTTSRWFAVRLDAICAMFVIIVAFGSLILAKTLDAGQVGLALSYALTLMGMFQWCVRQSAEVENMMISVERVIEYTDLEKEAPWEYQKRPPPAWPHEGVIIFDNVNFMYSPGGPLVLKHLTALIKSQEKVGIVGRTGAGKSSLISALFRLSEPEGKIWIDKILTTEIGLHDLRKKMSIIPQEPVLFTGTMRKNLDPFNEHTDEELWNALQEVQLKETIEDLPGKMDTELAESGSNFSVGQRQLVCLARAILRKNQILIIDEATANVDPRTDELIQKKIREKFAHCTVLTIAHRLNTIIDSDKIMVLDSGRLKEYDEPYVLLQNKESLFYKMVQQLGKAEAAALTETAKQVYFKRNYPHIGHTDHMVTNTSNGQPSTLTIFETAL

[3] = target: ATP-binding cassette sub-family C member 2 (Homo sapiens, UniProt Q92887); assay: Inhibition of human MRP2 overexpressed in Sf9 cell membrane vesicles assessed as uptake of [3H]-estradiol-17beta-D-glucuronide in presence of ATP and GSH measured after 20 mins by membrane vesicle transport assay
Bile salt export pump = Bile salt export pump (Homo sapiens, UniProt O95342); assay: Inhibition of human BSEP overexpressed in Sf9 cell membrane vesicles assessed as uptake of [3H]-taurocholate in presence of ATP measured after 15 to 20 mins by membrane vesicle transport assay; assay type: ADME, cell-based
Sequence of Bile salt export pump (O95342 whole entry): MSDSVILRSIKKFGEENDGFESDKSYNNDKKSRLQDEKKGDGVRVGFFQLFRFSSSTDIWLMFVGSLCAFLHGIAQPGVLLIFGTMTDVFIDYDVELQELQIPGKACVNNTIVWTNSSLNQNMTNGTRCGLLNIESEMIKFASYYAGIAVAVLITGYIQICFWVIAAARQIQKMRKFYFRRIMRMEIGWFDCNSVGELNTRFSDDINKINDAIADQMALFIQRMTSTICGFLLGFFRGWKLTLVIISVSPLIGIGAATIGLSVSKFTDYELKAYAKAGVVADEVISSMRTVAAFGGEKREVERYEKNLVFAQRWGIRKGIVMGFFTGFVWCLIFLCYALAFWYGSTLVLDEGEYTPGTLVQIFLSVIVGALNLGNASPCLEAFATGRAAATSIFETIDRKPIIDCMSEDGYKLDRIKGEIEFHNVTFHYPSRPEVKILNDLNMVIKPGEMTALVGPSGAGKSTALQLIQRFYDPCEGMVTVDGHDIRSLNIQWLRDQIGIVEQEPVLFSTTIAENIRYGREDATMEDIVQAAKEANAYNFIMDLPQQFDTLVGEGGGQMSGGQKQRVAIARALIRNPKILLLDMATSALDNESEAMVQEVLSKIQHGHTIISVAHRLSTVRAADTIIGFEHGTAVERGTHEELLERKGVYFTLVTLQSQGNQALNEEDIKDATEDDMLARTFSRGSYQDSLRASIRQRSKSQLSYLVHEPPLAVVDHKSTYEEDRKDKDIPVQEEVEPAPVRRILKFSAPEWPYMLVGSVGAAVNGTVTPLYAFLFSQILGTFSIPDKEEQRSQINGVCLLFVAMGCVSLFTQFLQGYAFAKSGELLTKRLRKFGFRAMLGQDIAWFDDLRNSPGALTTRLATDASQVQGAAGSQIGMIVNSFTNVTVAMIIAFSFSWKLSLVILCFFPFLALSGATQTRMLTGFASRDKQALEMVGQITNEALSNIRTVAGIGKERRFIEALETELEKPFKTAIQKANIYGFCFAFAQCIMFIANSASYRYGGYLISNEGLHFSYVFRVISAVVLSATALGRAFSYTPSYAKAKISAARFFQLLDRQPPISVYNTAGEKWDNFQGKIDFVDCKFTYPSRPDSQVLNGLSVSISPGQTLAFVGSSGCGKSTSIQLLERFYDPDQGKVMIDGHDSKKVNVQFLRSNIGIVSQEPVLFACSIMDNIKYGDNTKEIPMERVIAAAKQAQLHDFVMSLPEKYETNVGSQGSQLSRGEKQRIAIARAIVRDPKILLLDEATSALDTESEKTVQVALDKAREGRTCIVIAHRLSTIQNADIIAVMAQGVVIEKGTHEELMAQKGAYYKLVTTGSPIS

Sequence of ATP-binding cassette sub-family C member 3 (O15438 whole entry): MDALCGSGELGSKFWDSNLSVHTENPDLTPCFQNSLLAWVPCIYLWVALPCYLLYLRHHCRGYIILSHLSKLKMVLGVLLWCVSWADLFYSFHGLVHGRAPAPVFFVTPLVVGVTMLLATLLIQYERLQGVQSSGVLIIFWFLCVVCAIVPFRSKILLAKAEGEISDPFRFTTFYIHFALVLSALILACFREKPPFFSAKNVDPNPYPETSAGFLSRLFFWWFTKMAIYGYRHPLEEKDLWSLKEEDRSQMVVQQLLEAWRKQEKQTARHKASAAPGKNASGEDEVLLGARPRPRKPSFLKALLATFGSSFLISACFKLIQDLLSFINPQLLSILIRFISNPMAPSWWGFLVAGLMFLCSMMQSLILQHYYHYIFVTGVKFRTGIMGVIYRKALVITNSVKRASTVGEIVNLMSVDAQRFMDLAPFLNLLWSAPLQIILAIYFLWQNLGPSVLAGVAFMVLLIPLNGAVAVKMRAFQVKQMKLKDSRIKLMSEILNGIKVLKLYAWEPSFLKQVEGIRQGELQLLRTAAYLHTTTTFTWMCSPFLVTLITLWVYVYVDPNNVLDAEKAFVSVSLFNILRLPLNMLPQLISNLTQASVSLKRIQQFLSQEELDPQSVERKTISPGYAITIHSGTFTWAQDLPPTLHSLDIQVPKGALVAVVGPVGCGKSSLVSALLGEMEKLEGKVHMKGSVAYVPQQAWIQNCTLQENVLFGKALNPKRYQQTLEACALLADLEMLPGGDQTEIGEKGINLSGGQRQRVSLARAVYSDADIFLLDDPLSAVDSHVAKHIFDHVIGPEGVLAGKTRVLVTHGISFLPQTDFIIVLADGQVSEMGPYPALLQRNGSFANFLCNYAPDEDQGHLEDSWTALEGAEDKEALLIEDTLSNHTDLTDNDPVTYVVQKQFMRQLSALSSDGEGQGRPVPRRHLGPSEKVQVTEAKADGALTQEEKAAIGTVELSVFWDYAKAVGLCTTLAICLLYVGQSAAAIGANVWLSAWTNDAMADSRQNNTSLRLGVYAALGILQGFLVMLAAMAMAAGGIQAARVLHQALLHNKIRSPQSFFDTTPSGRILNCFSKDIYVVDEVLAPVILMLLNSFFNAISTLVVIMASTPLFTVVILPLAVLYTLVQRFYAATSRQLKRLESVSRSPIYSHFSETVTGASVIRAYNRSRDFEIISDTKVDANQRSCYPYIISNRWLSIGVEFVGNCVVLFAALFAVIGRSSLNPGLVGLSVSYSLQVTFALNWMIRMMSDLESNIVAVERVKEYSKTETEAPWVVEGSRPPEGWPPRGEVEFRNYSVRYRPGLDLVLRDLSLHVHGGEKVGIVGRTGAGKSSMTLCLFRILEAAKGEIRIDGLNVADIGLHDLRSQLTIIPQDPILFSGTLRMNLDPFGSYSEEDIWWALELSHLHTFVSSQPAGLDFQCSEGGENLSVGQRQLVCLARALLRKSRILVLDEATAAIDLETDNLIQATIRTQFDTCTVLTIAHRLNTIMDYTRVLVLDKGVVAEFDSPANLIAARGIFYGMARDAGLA
Sequence of ATP-binding cassette sub-family C member 2 (Q92887 whole entry): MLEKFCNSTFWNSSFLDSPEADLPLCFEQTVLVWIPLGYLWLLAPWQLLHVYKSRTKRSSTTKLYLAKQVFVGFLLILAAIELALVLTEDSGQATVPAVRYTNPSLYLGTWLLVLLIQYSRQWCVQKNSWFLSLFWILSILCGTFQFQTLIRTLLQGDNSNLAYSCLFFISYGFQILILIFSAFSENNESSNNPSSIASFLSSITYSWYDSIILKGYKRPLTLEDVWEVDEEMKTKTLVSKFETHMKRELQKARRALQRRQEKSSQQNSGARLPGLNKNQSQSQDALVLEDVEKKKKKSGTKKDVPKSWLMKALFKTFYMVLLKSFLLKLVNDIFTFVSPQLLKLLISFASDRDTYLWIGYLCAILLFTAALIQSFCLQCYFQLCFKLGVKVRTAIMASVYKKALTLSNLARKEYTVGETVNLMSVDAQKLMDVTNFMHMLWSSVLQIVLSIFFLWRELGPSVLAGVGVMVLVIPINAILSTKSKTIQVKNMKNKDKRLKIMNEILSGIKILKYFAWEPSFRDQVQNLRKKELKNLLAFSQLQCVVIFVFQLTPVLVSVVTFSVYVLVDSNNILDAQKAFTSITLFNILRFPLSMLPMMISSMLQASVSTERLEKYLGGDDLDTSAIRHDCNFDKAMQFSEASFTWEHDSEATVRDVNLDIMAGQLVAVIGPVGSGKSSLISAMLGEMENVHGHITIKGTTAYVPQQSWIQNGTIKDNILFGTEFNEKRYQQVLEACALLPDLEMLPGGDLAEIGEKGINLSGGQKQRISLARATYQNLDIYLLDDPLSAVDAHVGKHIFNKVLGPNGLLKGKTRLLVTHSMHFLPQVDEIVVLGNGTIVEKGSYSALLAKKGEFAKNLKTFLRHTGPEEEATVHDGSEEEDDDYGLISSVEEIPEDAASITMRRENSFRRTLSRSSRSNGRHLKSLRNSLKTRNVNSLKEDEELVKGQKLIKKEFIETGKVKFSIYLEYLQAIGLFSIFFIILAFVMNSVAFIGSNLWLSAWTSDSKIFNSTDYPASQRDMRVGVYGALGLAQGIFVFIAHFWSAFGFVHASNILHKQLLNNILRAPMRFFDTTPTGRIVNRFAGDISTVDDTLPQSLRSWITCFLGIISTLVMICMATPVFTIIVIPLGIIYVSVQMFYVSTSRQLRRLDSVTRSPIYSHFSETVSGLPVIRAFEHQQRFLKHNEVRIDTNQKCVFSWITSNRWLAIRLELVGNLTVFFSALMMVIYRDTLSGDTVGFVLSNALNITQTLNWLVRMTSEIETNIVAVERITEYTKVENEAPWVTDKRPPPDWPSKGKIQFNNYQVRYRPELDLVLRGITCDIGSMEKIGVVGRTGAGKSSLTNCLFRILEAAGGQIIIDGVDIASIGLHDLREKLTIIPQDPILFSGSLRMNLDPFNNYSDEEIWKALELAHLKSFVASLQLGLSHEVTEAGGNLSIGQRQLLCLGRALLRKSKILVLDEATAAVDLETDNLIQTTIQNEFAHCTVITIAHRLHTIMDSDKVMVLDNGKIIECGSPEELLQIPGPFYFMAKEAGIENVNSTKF

Row | SMILES | IC50 [1] [µM] | IC50 [2] [µM] | IC50 [3] [µM] | IC50 (Bile salt export pump) [µM]
1 | CC(=O)O[C@H]1C[C@@H]2CC[C@@H]3[C@H](CC[C@@]4(C)[C@H]3C[C@H]([N+]3(C)CCCCC3)[C@@H]4OC(C)=O)[C@@]2(C)C[C@@H]1[N+]1(C)CCCCC1 [PANCURONIUM BROMIDE] | > 133 | > 133 | > 133 | > 133
2 | C#C[C@]1(O)CC[C@H]2[C@@H]3CCC4=CC(=O)CC[C@@H]4[C@H]3CC[C@@]21CC [LEVONORGESTREL] | > 133 | > 133 | > 133 | > 133
3 | CCOC(=O)C1=C(COCCN)NC(C)=C(C(=O)OC)C1c1ccccc1Cl (stereo not drawn) [AMLODIPINE] | > 133 | > 133 | > 133 | > 133
4 | c1ccc(C2(c3ccccc3)CC2C2=NCCN2)cc1 (stereo not drawn) [CIFENLINE] | > 133 | > 133 | > 133 | > 133
5 | CN1CCN(C2=Nc3cc(Cl)ccc3Nc3ccccc32)CC1 [CLOZAPINE] | > 133 | > 133 | > 133 | > 133
6 | CCN(CC)CCOc1ccc2c(c1)C(=O)c1cc(OCCN(CC)CC)ccc1-2 [TILORONE] | > 133 | > 133 | > 133 | > 133
7 | CC(=O)OCC(CCn1cnc2cnc(N)nc21)COC(C)=O [FAMCICLOVIR] | > 133 | > 133 | > 133 | > 133
8 | C=CCCCCCCCCC(=O)O [UNDECYLENIC ACID] | > 133 | 63.9 | > 133 | > 133
9 | COc1ccccc1OCCNCC(O)COc1cccc2[nH]c3ccccc3c12 (stereo not drawn) [CARVEDILOL] | > 133 | > 133 | > 133 | > 133
10 | NCC1O[C@H](O[C@H]2[C@@H](O)[C@H](O[C@H]3[C@H](O)[C@@H](N)C[C@@H](N)[C@@H]3O[C@H]3O[C@H](CN)[C@@H](O)[C@H](O)[C@H]3N)O[C@@H]2CO)[C@H](N)[C@@H](O)[C@@H]1O (stereo partly drawn) | > 133 | > 133 | > 133 | > 133
11 | Cc1ccc(S(=O)(=O)NC(=O)NN2CC3CCCC3C2)cc1 (stereo not drawn) [GLICLAZIDE] | > 133 | > 133 | > 133 | > 133
12 | Oc1c(I)cc(Cl)c2cccnc12 [CLIOQUINOL] | > 133 | > 133 | > 133 | > 133
13 | CCCCCCCCCCC[C@@H](C[C@@H]1OC(=O)[C@H]1CCCCCC)OC(=O)[C@H](CC(C)C)NC=O [ORLISTAT] | > 133 | > 133 | > 133 | > 133
14 | Cc1c(OCC(F)(F)F)ccnc1C[S+]([O-])c1nc2ccccc2[nH]1 (stereo not drawn) [LANSOPRAZOLE] | > 133 | > 133 | > 133 | > 133
15 | CC1=NS(=O)(=O)c2cc(Cl)ccc2N1 [DIAZOXIDE] | > 133 | > 133 | > 133 | > 133
16 | CN(C)c1cc(NC(=O)CNC(C)(C)C)c(O)c2c1C[C@H]1C[C@H]3[C@H](N(C)C)C(O)=C(C(N)=O)C(=O)[C@@]3(O)C(O)=C1C2=O [TIGECYCLINE] | > 133 | > 133 | > 133 | > 133
17 | CSc1ccc(C(=O)c2[nH]c(=O)[nH]c2C)cc1 [ENOXIMONE] | > 133 | > 133 | > 133 | > 133
18 | ClC(Cl)(Cl)Cl [CARBON TETRACHLORIDE] | > 133 | > 133 | > 133 | > 133
19 | CC[C@]1(O)C[C@@H]2CN(CCc3c([nH]c4ccccc34)[C@@](C(=O)OC)(c3cc4c(cc3OC)N(C)[C@H]3[C@@](O)(C(=O)OC)[C@H](OC(C)=O)[C@]5(CC)C=CCN6CC[C@]43[C@@H]65)C2)C1 [VINBLASTINE] | > 133 | 35.1 | > 133 | > 133
20 | N=C(N)NC(=O)Cc1c(Cl)cccc1Cl [GUANFACINE] | > 133 | > 133 | > 133 | > 133
21 | CN(C)CCc1c[nH]c2ccc(Cn3cncn3)cc12 [RIZATRIPTAN BENZOATE] | > 133 | > 133 | > 133 | > 133
22 | Nc1nc(Cl)nc2c1ncn2[C@@H]1O[C@H](CO)[C@@H](O)[C@@H]1F [CLOFARABINE] | > 133 | > 133 | > 133 | > 133

Second part, led by results:

Row | IC50 [1] [µM] | IC50 [2] [µM] | IC50 [3] [µM] | SMILES | IC50 (Bile salt export pump) [µM]
23 | > 133 | > 133 | > 133 | C[C@@H]1CN(c2c(F)c(N)c3c(=O)c(C(=O)O)cn(C4CC4)c3c2F)C[C@H](C)N1 [SPARFLOXACIN] | > 133
24 | > 133 | > 133 | > 133 | O=C(NCCO[N+](=O)[O-])c1cccnc1 [NICORANDIL] | > 133
25 | > 133 | > 133 | > 133 | S=P(N1CC1)(N1CC1)N1CC1 [THIOTEPA] | > 133
26 | > 133 | > 133 | > 133 | COc1ccc(-c2ccc3cc(C(=O)O)ccc3c2)cc1C12CC3CC(CC(C3)C1)C2 | > 133
27 | > 133 | > 133 | 89.4 | C=CC1=C(C(=O)O)N2C(=O)[C@@H](NC(=O)/C(=N\OCC(=O)O)c3csc(N)n3)[C@H]2SC1 [CEFIXIME] | > 133
28 | > 133 | > 133 | > 133 | N[C@@H](C(=O)N[C@@H]1C(=O)N2C(C(=O)O)=C(Cl)CS[C@H]12)c1ccccc1 [CEFACLOR ANHYDROUS] | > 133
29 | > 133 | > 133 | > 133 | CCN1CCN(C(=O)N[C@@H](C(=O)N[C@@H]2C(=O)N3[C@@H]2SC(C)(C)[C@@H]3C(=O)O)c2ccccc2)C(=O)C1=O [PIPERACILLIN SODIUM] | > 133
30 | > 133 | > 133 | > 133 | COC(=O)[C@@H]1CC2=CC(=O)CC[C@]2(C)[C@@]23O[C@@H]2C[C@@]2(C)[C@@H](CC[C@@]24CCC(=O)O4)[C@H]13 [EPLERENONE] | > 133
31 | > 133 | > 133 | > 133 | Cc1cccc(C)c1OCC(C)N (stereo not drawn) [MEXILETINE] | > 133
32 | > 133 | > 133 | > 133 | CC1(C)O[C@@H]2C[C@H]3[C@@H]4C[C@H](F)C5=CC(=O)C=C[C@]5(C)[C@H]4[C@@H](O)C[C@]3(C)[C@]2(C(=O)CO)O1 [FLUNISOLIDE] | > 133
33 | > 133 | > 133 | > 133 | O=C(c1ccc(F)cc1)C1CCN(CCn2c(=O)[nH]c3ccccc3c2=O)CC1 [KETANSERIN] | > 133
34 | > 133 | > 133 | > 133 | CC1Cc2ccccc2N1NC(=O)c1ccc(Cl)c(S(N)(=O)=O)c1 (stereo not drawn) [INDAPAMIDE] | > 133
35 | > 133 | > 133 | > 133 | CN1CCC(=C2c3ccccc3CC(=O)c3sccc32)CC1 [KETOTIFEN FUMARATE] | > 133
36 | > 133 | > 133 | > 133 | Nc1nc(O)c2ncn(COC(CO)CO)c2n1 [GANCICLOVIR] | > 133
37 | 58.3 | 26.8 | > 133 | CC(C)c1nc(N(C)S(C)(=O)=O)nc(-c2ccc(F)cc2)c1/C=C/[C@@H](O)C[C@@H](O)CC(=O)O [ROSUVASTATIN CALCIUM] | > 133
